# Source: patent US5424292A (Depha Team s.r.l., priority 1990, dated 1995)
# How the values were obtained:
# [1] = male Fischer rats, doses equivalent to 60 mg/kg of 5-ASA via metal probe into stomach; for Recovery percentages of 5-ASA + N-acetyl-5-ASA in feces by HPLC: feces withdrawn at 2 hour intervals for 48 hours; for Recovery percentages of 5-ASA + N-acetyl-5-ASA in urine by HPLC: urine withdrawn at 2 hour intervals for 48 hours
# Protocol: Particularly, male Fischer rats weighing about 200-250 g were used.
# The rats were then placed in metabolic cages, from which feces and urine were withdrawn at 2 hour intervals for 48 hours.
# [2] = cited from earlier work
SMILES,Recovery percentages of 5-ASA + N-acetyl-5-ASA in feces by HPLC [1],Recovery percentages of 5-ASA + N-acetyl-5-ASA in urine by HPLC [1],Stability at the gastric pH [2]
"N[C@@H](CCC(=O)O)C(=O)Nc1ccc(O)c(C(=O)O)c1 [Compound 2, (N-L-glutamyl)-amino-2-salicylic acid]",45 ± 4%,34 ± 4%,–
"Nc1ccc(O)c(C(=O)O)c1 [Compound 5-ASA, 5-aminosalicylic acid]",05 ± 3%,79 ± 3%,not stable at the gastric pH
